Measured values from US20090018019A1, “INCREASING PATHOGEN DEFENCE IN PLANTS” (priority 2005, published 2009).

Key:
Assay in all cases: DNA chip expression analysis of barley leaves after soil treatment
Format in all cases: in vivo
Conditions in all cases: 10 mg per plant to soil
[1] = system: Contig2212_s_at PATHOGENESIS-RELATED PROTEIN PRB1-3
Method: (§1) Barley seeds (of the Baroness variety) were sown in pots containing soil about 2 cm deep (1250 g of sandy loam/per pot; the soil moisture content was adjusted to 70% of the maximum water-holding capacity) and cultivated in a climatized chamber under specified light, moisture and temperature conditions (15 h white light, 70% atmospheric humidity, 23-19° C. day/night).
(§2) 14 days after the emergence of the barley plants 10 mg of imidacloprid per plant, dissolved in 100 ml water, were applied by means of a pipette to the soil around the base of the shoot. The same volume of water without any active compound was applied to the control pots. After the soil treatment the plants were no longer watered. At various times after application (0.25; 1; 6; 8; 11; 13; 15; 16 and 17 days) the leaves were harvested, quick-frozen in liquid nitrogen and stored at −80° C. until further treatment.
(§3) The labelled RNA probes for the DNA chip hybridization were produced according to the protocols (Expression Analysis, Technical Manual) of the Affymetrix company (Affymetrix Inc., 3380 Central Expressway, Santa Clara, Calif., USA). Whole RNA was first of all isolated from in each case 500 mg of the harvested leaves. 10 μg portions of whole RNA were used for the first and second strand cDNA synthesis. The cDNA was amplified with T7 polymerase and simultaneously labelled with biotin-UTP. 20 μg portions of this biotinylated cDNA were used for the hybridization of the barley genome array (Barleyl Gene Chip, Item no: 511012) from Affymetrix. This DNA microarray contains DNA sequences of 22840 genes composed of a total of 400000 EST (Expressed Sequence Tag) sequences. Then the DNA microarrays were washed in the Affymetrix Fluidics Station, stained with streptavidin/phycoerythrin (Molecular Probes, P/N S-866) and scanned with the Affymetrix Gene Chip Scanner 3000. The fluorescence data obtained were analyzed with the Microarray Suite 5 software from Affymetrix and the Expressionist Pro software from the GeneData company. After a quality check, all of the DNA chip analyses were stored in a database. Since the Affymetrix Gene Chip System is based on measuring the absolute expression values of the genes contained in the chip, the expression values of the biological replicates of treated and non-treated plants were averaged after normalization (median calculation). With the aid of the statistical ANOVA method, those genes were identified whose expression was increased in the plants treated with imidacloprid but remained relatively constant in the untreated controls. The assembly of gene groups from specific metabolic pathways, signal transduction chains or functions was carried out by a keyword search through the gene annotations supplied by Affymetrix and by linking the genes to their corresponding Gene Ontology Annotations (Gene Ontology Consortium).

[2] = system: Contig2550_x_at PATHOGENESIS-RELATED PROTEIN 4
Method: as §1, §2, §3

[3] = system: Contig12046_at PATHOGENESIS RELATED PROTEIN-1
Method: as §1, §2, §3

[4] = system: Contig2214_s_at PATHOGENESIS RELATED PROTEIN (HV-1A)
Method: as §1, §2, §3

[5] = system: Contig4405_x_at PATHOGENESIS-RELATED PROTEIN PR-10A
Method: as §1, §2, §3

O=[N+]([O-])/N=C1\NCCN1Cc1ccc(Cl)nc1 [imidacloprid]
Induction factor = Expression (treated)/Expression (untreated) ([1]; 0.25 d): 0.9 | Median of the raw expression data, treated ([1]; 0.25 days): 153.25 | Induction factor = Expression (treated)/Expression (untreated) ([1]; 1 d): 0.9 | Median of the raw expression data, treated ([1]; 1 day): 135.85 | Induction factor = Expression (treated)/Expression (untreated) ([1]; 6 d): 9.6 | Median of the raw expression data, treated ([1]; 6 days): 3508.08 | Induction factor = Expression (treated)/Expression (untreated) ([1]; 8 d): 10.3 | Median of the raw expression data, treated ([1]; 8 days): 3936.08 | Induction factor = Expression (treated)/Expression (untreated) ([1]; 11 d): 9.0 | Median of the raw expression data, treated ([1]; 11 days): 3866.40 | Induction factor = Expression (treated)/Expression (untreated) ([1]; 13 d): 3.7 | Median of the raw expression data, treated ([1]; 13 days): 470.29 | Induction factor = Expression (treated)/Expression (untreated) ([1]; 15 d): 2.3 | Median of the raw expression data, treated ([1]; 15 days): 378.35 | Induction factor = Expression (treated)/Expression (untreated) ([1]; 16 d): 2.4 | Median of the raw expression data, treated ([1]; 16 days): 756.91 | Induction factor = Expression (treated)/Expression (untreated) ([1]; 17 d): 0.7 | Median of the raw expression data, treated ([1]; 17 days): 376.36 | Induction factor = Expression (treated)/Expression (untreated) ([2]; 0.25 d): 0.8 | Median of the raw expression data, treated ([2]; 0.25 days): 68.63 | Induction factor = Expression (treated)/Expression (untreated) ([2]; 1 d): 0.7 | Median of the raw expression data, treated ([2]; 1 day): 54.66 | Induction factor = Expression (treated)/Expression (untreated) ([2]; 6 d): 5.8 | Median of the raw expression data, treated ([2]; 6 days): 716.14 | Induction factor = Expression (treated)/Expression (untreated) ([2]; 8 d): 7.4 | Median of the raw expression data, treated ([2]; 8 days): 1121.61 | Induction factor = Expression (treated)/Expression (untreated) ([2]; 11 d): 6.1 | Median of the raw expression data, treated ([2]; 11 days): 771.21 | Induction factor = Expression (treated)/Expression (untreated) ([2]; 13 d): 3.1 | Median of the raw expression data, treated ([2]; 13 days): 150.42 | Induction factor = Expression (treated)/Expression (untreated) ([2]; 15 d): 1.4 | Median of the raw expression data, treated ([2]; 15 days): 162.60 | Induction factor = Expression (treated)/Expression (untreated) ([2]; 16 d): 2.7 | Median of the raw expression data, treated ([2]; 16 days): 389.62 | Induction factor = Expression (treated)/Expression (untreated) ([2]; 17 d): 0.9 | Median of the raw expression data, treated ([2]; 17 days): 174.42 | Induction factor = Expression (treated)/Expression (untreated) ([3]; 0.25 d): 0.9 | Median of the raw expression data, treated ([3]; 0.25 days): 76.89 | Induction factor = Expression (treated)/Expression (untreated) ([3]; 1 d): 0.8 | Median of the raw expression data, treated ([3]; 1 day): 46.22 | Induction factor = Expression (treated)/Expression (untreated) ([3]; 6 d): 6.5 | Median of the raw expression data, treated ([3]; 6 days): 786.00 | Induction factor = Expression (treated)/Expression (untreated) ([3]; 8 d): 7.2 | Median of the raw expression data, treated ([3]; 8 days): 1336.13 | Induction factor = Expression (treated)/Expression (untreated) ([3]; 11 d): 7.8 | Median of the raw expression data, treated ([3]; 11 days): 792.96 | Induction factor = Expression (treated)/Expression (untreated) ([3]; 13 d): 2.7 | Median of the raw expression data, treated ([3]; 13 days): 140.26 | Induction factor = Expression (treated)/Expression (untreated) ([3]; 15 d): 2.5 | Median of the raw expression data, treated ([3]; 15 days): 150.31 | Induction factor = Expression (treated)/Expression (untreated) ([3]; 16 d): 2.9 | Median of the raw expression data, treated ([3]; 16 days): 622.77 | Induction factor = Expression (treated)/Expression (untreated) ([3]; 17 d): 0.9 | Median of the raw expression data, treated ([3]; 17 days): 220.80 | Induction factor = Expression (treated)/Expression (untreated) ([4]; 0.25 d): 0.9 | Median of the raw expression data, treated ([4]; 0.25 days): 86.29 | Induction factor = Expression (treated)/Expression (untreated) ([4]; 1 d): 0.5 | Median of the raw expression data, treated ([4]; 1 day): 44.68 | Induction factor = Expression (treated)/Expression (untreated) ([4]; 6 d): 9.8 | Median of the raw expression data, treated ([4]; 6 days): 3322.93 | Induction factor = Expression (treated)/Expression (untreated) ([4]; 8 d): 11.1 | Median of the raw expression data, treated ([4]; 8 days): 4807.28 | Induction factor = Expression (treated)/Expression (untreated) ([4]; 11 d): 9.3 | Median of the raw expression data, treated ([4]; 11 days): 4463.75 | Induction factor = Expression (treated)/Expression (untreated) ([4]; 13 d): 5.1 | Median of the raw expression data, treated ([4]; 13 days): 636.20 | Induction factor = Expression (treated)/Expression (untreated) ([4]; 15 d): 3.0 | Median of the raw expression data, treated ([4]; 15 days): 808.24 | Induction factor = Expression (treated)/Expression (untreated) ([4]; 16 d): 2.4 | Median of the raw expression data, treated ([4]; 16 days): 1241.52 | Induction factor = Expression (treated)/Expression (untreated) ([4]; 17 d): 0.6 | Median of the raw expression data, treated ([4]; 17 days): 472.04 | Induction factor = Expression (treated)/Expression (untreated) ([5]; 0.25 d): 1.1 | Median of the raw expression data, treated ([5]; 0.25 days): 60.34 | Induction factor = Expression (treated)/Expression (untreated) ([5]; 1 d): 0.9 | Median of the raw expression data, treated ([5]; 1 day): 55.96 | Induction factor = Expression (treated)/Expression (untreated) ([5]; 6 d): 2.1 | Median of the raw expression data, treated ([5]; 6 days): 146.82 | Induction factor = Expression (treated)/Expression (untreated) ([5]; 8 d): 2.8 | Median of the raw expression data, treated ([5]; 8 days): 181.30 | Induction factor = Expression (treated)/Expression (untreated) ([5]; 11 d): 2.2 | Median of the raw expression data, treated ([5]; 11 days): 125.79 | Induction factor = Expression (treated)/Expression (untreated) ([5]; 13 d): 1.3 | Median of the raw expression data, treated ([5]; 13 days): 55.42 | Induction factor = Expression (treated)/Expression (untreated) ([5]; 15 d): 1.1 | Median of the raw expression data, treated ([5]; 15 days): 57.66 | Induction factor = Expression (treated)/Expression (untreated) ([5]; 16 d): 1.4 | Median of the raw expression data, treated ([5]; 16 days): 88.69 | Induction factor = Expression (treated)/Expression (untreated) ([5]; 17 d): 1.5 | Median of the raw expression data, treated ([5]; 17 days): 87.06
